From the supplement of paper PMC10307832

Legend:
Test in all cases: relative viability (nuclei count vs DMSO), 5 days (fraction); higher = more cells survive
IPA-3 + Luminespib = compound: C1=CC=C2C(=C1)C=CC(=C2SSC3=C(C=CC4=CC=CC=C43)O)O [IPA-3] + CCNC(=O)c1noc(-c2cc(C(C)C)c(O)cc2O)c1-c1ccc(CN2CCOCC2)cc1 [Luminespib] (partner 0.01 µM)
Summary of the method: (§1)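 Nuclei were stained with Hoechst during a one-step fixation (final 0.05% Triton X-100, 1% formaldehyde, 1 ug/ml Hoechst) carried out 5 days after dosing, then counted on 4× images. The cells, lung cancer lines in 1536-well plates, had been dosed by pin tool the day after seeding with one drug alone or a fixed anchor-drug dose plus five library-drug doses (not always all listed) in √10 steps. Relative viability is the nuclei count in treated wells divided by that in vehicle wells, and each value is the median of duplicate plates.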

Doramapimod + Foretinib = compound: Cc1ccc(-n2nc(C(C)(C)C)cc2NC(=O)Nc2ccc(OCCN3CCOCC3)c3ccccc23)cc1 [Doramapimod] + COc1cc2c(Oc3ccc(NC(=O)C4(C(=O)Nc5ccc(F)cc5)CC4)cc3F)ccnc2cc1OCCCN1CCOCC1 [Foretinib] (partner 0.25 µM)
Summary of the method: as §1

RAF265 + OSI-027 = compound: Cn1c(Nc2ccc(C(F)(F)F)cc2)nc2cc(Oc3ccnc(-c4ncc(C(F)(F)F)[nH]4)c3)ccc21 [RAF265] + COc1cccc2cc(-c3nc([C@H]4CC[C@H](C(=O)O)CC4)n4ncnc(N)c34)[nH]c12 [OSI-027] (partner 0.5 µM)
Summary of the method: as §1

IPA-3 + Pemetrexed = compound: C1=CC=C2C(=C1)C=CC(=C2SSC3=C(C=CC4=CC=CC=C43)O)O [IPA-3] + Nc1nc2[nH]cc(CCc3ccc(C(=O)N[C@@H](CCC(=O)O)C(=O)O)cc3)c2c(=O)[nH]1 [Pemetrexed] (partner 0.2 µM)
Summary of the method: as §1

| Cell Line | relative viability (IPA-3 + Luminespib; first compound 0.2 µM) | relative viability (IPA-3 + Luminespib; first compound 0.6325 µM) | relative viability (IPA-3 + Luminespib; first compound 2 µM) | relative viability (IPA-3 + Luminespib; first compound 6.325 µM) | relative viability (IPA-3 + Luminespib; first compound 20 µM) | relative viability (Doramapimod + Foretinib; first compound 0.02 µM) | relative viability (Doramapimod + Foretinib; first compound 0.06325 µM) | relative viability (Doramapimod + Foretinib; first compound 0.2 µM) | relative viability (Doramapimod + Foretinib; first compound 0.6325 µM) | relative viability (Doramapimod + Foretinib; first compound 2 µM) | relative viability (RAF265 + OSI-027; first compound 0.01 µM) | relative viability (RAF265 + OSI-027; first compound 0.03162 µM) | relative viability (RAF265 + OSI-027; first compound 0.1 µM) | relative viability (RAF265 + OSI-027; first compound 0.3162 µM) | relative viability (RAF265 + OSI-027; first compound 1 µM) | relative viability (IPA-3 + Pemetrexed; first compound 0.2 µM) | relative viability (IPA-3 + Pemetrexed; first compound 0.6325 µM) | relative viability (IPA-3 + Pemetrexed; first compound 2 µM) | relative viability (IPA-3 + Pemetrexed; first compound 6.325 µM) | relative viability (IPA-3 + Pemetrexed; first compound 20 µM) |
| --- | --- | --- | --- | --- | --- | --- | --- | --- | --- | --- | --- | --- | --- | --- | --- | --- | --- | --- | --- | --- |
| SK-MES-1 | 0.753 | 0.691 | 0.831 | 0.782 | 0.808 | 0.965 | 0.864 | 0.773 | 1.04 | 0.816 | 0.544 | 0.355 | 0.186 | 0.223 | 0.187 | 1.04 | 0.886 | 0.991 | 0.824 | 0.918 |
| NCI-H2405 | 0.722 | 0.599 | 0.688 | 0.666 | 0.762 | 1.11 | 1.01 | 1.04 | 1.14 | 0.998 | 0.601 | 0.626 | 0.621 | 0.611 | 0.366 | 1.19 | 1.07 | 1.11 | 0.998 | 0.962 |
| NCI-H2023 | 0.93 | 0.617 | 0.674 | 0.712 | 0.693 | 0.833 | 0.732 | 0.691 | 0.823 | 0.605 | 0.387 | 0.358 | 0.33 | 0.252 | 0.318 | 0.249 | 0.207 | 0.266 | 0.227 | 0.243 |
| NCI-H838 | 0.238 | 0.218 | 0.306 | 0.276 | 0.378 | 1.01 | 0.993 | 1.08 | 1.21 | 1.01 | 0.403 | 0.491 | 0.455 | 0.341 | 0.304 | 0.266 | 0.236 | 0.258 | 0.271 | 0.322 |
| NCI-H1563 | 0.514 | 0.526 | 0.532 | 0.512 | 0.437 | 0.847 | 1 | 0.962 | 0.966 | 1.08 | 0.769 | 0.772 | 0.738 | 0.706 | 0.739 | 0.807 | 0.797 | 0.792 | 1 | 0.864 |
| NCI-H661 | 0.911 | 0.874 | 0.919 | 0.866 | 0.921 | 1.05 | 1 | 1.02 | 1.04 | 0.989 | 0.742 | 0.394 | 0.44 | 0.333 | 0.291 | 0.934 | 0.962 | 0.877 | 0.911 | 0.907 |
| NCI-H1734 | 0.191 | 0.224 | 0.185 | 0.216 | 0.194 | 0.808 | 0.805 | 0.802 | 0.767 | 0.598 | 0.604 | 0.54 | 0.38 | 0.381 | 0.247 | 0.412 | 0.46 | 0.436 | 0.365 | 0.383 |
| NCI-H1650 | 0.193 | 0.179 | 0.218 | 0.208 | 0.191 | 1.06 | 1.26 | 1.36 | 1.41 | 1.21 | 0.631 | 0.598 | 0.8 | 0.456 | 0.649 | 0.346 | 0.39 | 0.398 | 0.364 | 0.466 |
| NCI-H596 | 1.17 | 0.955 | 1.04 | 0.637 | 0.662 | 0.907 | 0.766 | 1.01 | 0.782 | 0.855 | 0.982 | 0.751 | 0.784 | 0.563 | 0.554 | 0.592 | 0.497 | 0.469 | 0.552 | 0.435 |
| NCI-H1944 | 0.914 | 0.651 | 0.891 | 0.827 | 0.937 | 0.782 | 0.918 | 0.883 | 0.957 | 0.715 | 0.516 | 0.5 | 0.357 | 0.317 | 0.237 | 0.687 | 0.549 | 0.551 | 0.721 | 0.577 |
| LK-2 | 0.179 | 0.193 | 0.17 | 0.189 | 0.222 | 1.04 | 1.04 | 0.919 | 1.05 | 0.925 | 0.212 | 0.202 | 0.176 | 0.177 | 0.203 | 0.29 | 0.255 | 0.272 | 0.287 | 0.242 |
| HCC-15 | 0.625 | 0.209 | 0.253 | 0.514 | 0.417 | 1.07 | 1.01 | 0.964 |  | 0.953 | 0.674 | 0.605 | 0.566 | 0.26 | 0.304 | 0.222 | 0.23 | 0.214 | 0.225 | 0.221 |
| HOP-62 | 1.12 | 0.919 | 0.963 | 0.855 | 1.11 | 1.15 | 1.05 | 1.11 | 1.14 | 1.08 | 0.807 | 0.774 | 0.698 | 0.731 | 0.631 | 0.333 | 0.315 | 0.345 | 0.313 | 0.328 |
